Data reported in publication PMC10590377, “Synthesis of novel coumarin-based thiosemicarbazones and their implications in diabetic management via in-vitro and in-silico approaches” (Scientific Reports, 2023).
Several values for one entry are separate records, joined by “and”; a condition that tells them apart may be missing. Identical values can stand only once. Entries after “also recorded” stand apart in the source; their conditions may differ.

Columns and labels:
α-glucosidase [1] = experiment: In-vitro α-glucosidase inhibition assay (4-nitro phenyl α-D-glucopyranoside substrate); assay type: biochemical; details: for Percent inhibition (0.5 mM): test samples 0.5 mM; for IC50: triplicate, ± SEM
Experimental: The most recent investigations were carried out utilizing the techniques we previously discussed. The enzyme and substrate were dissolved in phosphate buffer (pH 6.8) which also served as the reaction buffer for the experiments. A 96-well plate was used for the following ingredients: enzyme 2 U/2 mL, test samples (0.5 mM), 20 µL/well, enzyme 20 µL/well, and 135 µL/well reaction buffer. The plate was incubated for 15 min at 37 °C. Changes in absorbance brought on by substrate breakdown were measured at 400 nm for 30 min after each well-received 25 µL of 4-nitro phenyl α-D-glucopyranoside.
The formula below was used to compute the percent inhibition of all drugs tested.1 the%Inhibition=100-O.Dtestcompound/O.Dcontrol×100
EZ-FIT (Perrella Scientific, Inc., USA) to calculate the IC50 for all antidiabetic agents under the study.

α-glucosidase [2] = experiment: Kinetic studies of α-glucosidase inhibition (Lineweaver–Burk, secondary replot, Dixon plots); assay type: biochemical; details: for type / mode of inhibition: Lineweaver–Burk plots; for Ki: secondary replot of Lineweaver–Burk plots, reconfirmed by Dixon plots
Source text: In such types of inhibition, the Vmax of the enzyme remains constant, while the Km value increases (Fig. 3). Lineweaver–Burk plots were used to determine the type of inhibition of the given compounds, in which the reciprocal of the reaction rate was plotted vs. the reciprocal of substrate concentrations to investigate their effect on the Km and Vmax of the α-glucosidase (Fig. 3). To determine the Ki values for all compounds evaluated for kinetics study secondary replot of Lineweaver–Burk plots were applied by taking the slope of each line in Lineweaver–Burk plots vs. different concentrations of the tested compounds. Further Dixon plots were used for the reconfirmation of Ki values (Fig. 3).
Figure 3 The inhibitory mode of 3c, 3g and 3i against α-glucosidase enzyme (A) Line weaver-Burk plot of reciprocal of rate of reaction (velocities) vs reciprocal of substrate p-nitro phenyl-α-D-glucopyranoside in the absence of (filled black square), and in the presence of 7.00 (filled black circle), 3.50 (open circle) and 1.75 µM (open square) of 3c, 3g and 3i. (B) Secondary replot of Line weaver-Burk plot between the slopes of each line on Line weaver-Burk plot against different concentrations of 3c, 3g and 3i. (C) Dixon plot of reciprocal of rate of reaction (velocities) vs different concentrations of 3c, 3g and 3i.

Compound	Percent inhibition (0.5 mM) (α-glucosidase [1]) [%]	IC50 (α-glucosidase [1])	type / mode of inhibition (α-glucosidase [2])	Ki (α-glucosidase [2]) [µM]
COc1ccc(NC(=S)N/N=C/c2c(Cl)c3ccccc3oc2=O)cc1 [Compound 3h, (E)-2-((4-chloro-2-oxo-2H-chromen-3-yl)methylene)-N-(4-methoxyphenyl) hydrazine-1-carbothioamide]	94.63	3.4 ± 0.08 µM	–	–
O=c1oc2ccccc2c(Cl)c1/C=N/NC(=S)Nc1ccccc1F [Compound 3l, (E)-2-((4-chloro-2-oxo-2H-chromen-3-yl)methylene)-N-(2-fluorophenyl) hydrazine-1-carbothioamide]	92.08	8.84 ± 0.16 µM	–	–
O=c1oc2ccccc2c(Cl)c1/C=N/NC(=S)Nc1ccccc1 [Compound 3a, (E)-2-((4-chloro-2-oxo-2H-chromen-3-yl)methylene)-N-phenylhydrazine-1-carbothioamide]	92.45	10 µM and 10.1 µM	–	–
O=c1oc2ccccc2c(Cl)c1/C=N/NC(=S)NCCc1ccccc1 [Compound 3g, (E)-2-((4-chloro-2-oxo-2H-chromen-3-yl)methylene)-N-phenethylhydrazine-1-carbothioamide]	95.15	2.33 ± 0.04 µM	competitive inhibitor	1.33 ± 0.0027
Cc1ccc(NC(=S)N/N=C/c2c(Cl)c3ccccc3oc2=O)cc1 [Compound 3e, (E)-2-((4-chloro-2-oxo-2H-chromen-3-yl)methylene)-N-(p-tolyl) hydrazine-1-carbothioamide]	92.75	9.11 ± 0.2 µM	–	–
Cc1cccc(C)c1NC(=S)N/N=C/c1c(Cl)c2ccccc2oc1=O [Compound 3j, (E)-2-((4-chloro-2-oxo-2H-chromen-3-yl)methylene)-N-(2,6-dimethylphenyl) hydrazine-1-carbothioamide]	91.29	22.1 ± 0.37 µM	–	–
COc1cccc(NC(=S)N/N=C/c2c(Cl)c3ccccc3oc2=O)c1 [Compound 3b, (E)-2-((4-chloro-2-oxo-2H-chromen-3-yl)methylene)-N-(3-methoxyphenyl)hydrazine-1-carbothioamide]	94.67	6.1 ± 0.11 µM	–	–
O=c1oc2ccccc2c(Cl)c1/C=N/NC(=S)Nc1cccc(Cl)c1Cl [Compound 3k, (E)-2-((4-chloro-2-oxo-2H-chromen-3-yl)methylene)-N-(2,3-dichlorophenyl) hydrazine-1-carbothioamide]	92.54	4.22 ± 0.1 µM	–	–
O=c1oc2ccccc2c(Cl)c1/C=N/NC(=S)Nc1cc(Cl)c(Cl)cc1Cl [Compound 3c, (E)-2-((4-chloro-2-oxo-2H-chromen-3-yl)methylene)-N-(2,4,5-trichlorophenyl) hydrazine-1-carbothioamide]	94.68	2.57 ± 0.03 µM	competitive inhibitor; also recorded: concentration-dependent inhibition	1.62 ± 0.041
O=c1oc2ccccc2c(Cl)c1/C=N/NC(=S)Nc1ccc([N+](=O)[O-])cc1 [Compound 3i, (E)-2-((4-chloro-2-oxo-2H-chromen-3-yl)methylene)-N-(4-nitrophenyl) hydrazine-1-carbothioamide]	95.30	2.13 ± 0.04 µM	competitive inhibitor	1.51 ± 0.0086
O=c1oc2ccccc2c(Cl)c1/C=N/NC(=S)NCc1ccccc1 [Compound 3d, (E)-N-benzyl-2-((4-chloro-2-oxo-2H-chromen-3-yl)methylene) hydrazine-1-carbothioamide]	91.20	12.6 ± 0.16 µM	–	–
O=c1oc2ccccc2c(Cl)c1/C=N/NC(=S)NC1CCCCC1 [Compound 3f, (E)-2-((4-chloro-2-oxo-2H-chromen-3-yl)methylene)-N-cyclohexylhydrazine-1-carbothioamide]	91.70	11.2 ± 0.24 µM	–	–
C[C@H]1O[C@H](O[C@H]2[C@H](O)[C@@H](O)[C@@H](O[C@H]3[C@H](O)[C@@H](O)C(O)O[C@@H]3CO)O[C@@H]2CO)[C@H](O)[C@@H](O)[C@@H]1N[C@H]1C=C(CO)[C@@H](O)[C@H](O)[C@H]1O (stereo partly drawn) [acarbose, reference compound]	59.37	–	–	–
CNC(=S)N/N=C/c1c(Cl)c2ccccc2oc1=O [Compound 3m, (E)-2-((4-chloro-2-oxo-2H-chromen-3-yl)methylene)-N-methylhydrazine-1-carbothioamide]	91.37	24.2 ± 0.31 µM	–	–
